Experimental data from patent publication US20200369616A1, “ALKOXYCARBONATE ESTER PRODRUGS FOR USE AS ANTIMALARIAL AGENTS” (OREGON HEALTH & SCIENCE UNIVERSITY, priority 2019, published 2020).
In brackets after ≈: the same amount, converted by molar mass. Entries after “also recorded” stand apart in the source; their conditions may differ. Where two headings read alike, the source gives them in different places.

What was measured:
[1] = tested on: multidrug resistant P. falciparum strains; conditions: cited from earlier work
ATV resistant parasites = conditions: cited from earlier work
malaria-infected mice = conditions: cited from earlier work
[2] = mouse microsomes; cited from earlier work
[3] = rat microsomes; cited from earlier work
[4] = human microsomes; cited from earlier work
P. falciparum cyt bc1 = P. falciparum cyt bc1 (Plasmodium falciparum, UniProt Q02768); conditions: cited from earlier work
P. falciparum cyt bc1, sequence (Q02768 whole entry): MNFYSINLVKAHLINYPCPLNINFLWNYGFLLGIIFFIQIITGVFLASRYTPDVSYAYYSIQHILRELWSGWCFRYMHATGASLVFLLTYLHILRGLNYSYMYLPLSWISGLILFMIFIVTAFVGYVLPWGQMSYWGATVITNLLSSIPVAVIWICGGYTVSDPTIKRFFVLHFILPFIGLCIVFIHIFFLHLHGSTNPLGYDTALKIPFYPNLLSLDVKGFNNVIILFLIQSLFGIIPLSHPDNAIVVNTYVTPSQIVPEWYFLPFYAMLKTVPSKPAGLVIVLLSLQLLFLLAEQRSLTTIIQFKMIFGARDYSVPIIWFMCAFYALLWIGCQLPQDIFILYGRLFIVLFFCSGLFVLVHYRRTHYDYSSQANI

[5] = cited by Chatterjee, CALIBR model system; cited from earlier work
[6] = Estimation of compound solubility in sesame oil; type: physicochemical; conditions: room temperature, remained in solution for at least 72 hrs; for solubility: sesame oil, oil or lipid, thermodynamic from solid
Procedure: Generalized method for estimation of compound solubility in sesame oil: Sesame oil (10 μl) was dispensed into a glass vial containing 10 mg of the appropriate ELQ-300 prodrug. The mixture was vortexed and warmed (using a heat gun) to aid dissolution. The solubility of the compound was judged after the sesame oil mixture cooled to room temperature. If the compound was not completely dissolved, additional sesame oil was added in low-volume increments. Importantly, complete dissolution was assured by confirming by visual inspection that the compound remained in solution for at least 72 hrs at room temperature.

[7] = Pharmacokinetics of intramuscular (im) injections of ELQ-300 prodrugs in sesame oil in mice; type: in vivo; conditions: at every time point after im injection, Trial 2
Procedure: We dissolved ELQ-331 in sesame oil and administered (30 mg/kg) in a single […] injection into the caudal thigh of mice in two separate trials. Trial 1 served as a pilot study to monitor ELQ-300 blood levels for months following a single im injection. In Trial 2 we adjusted the LC-MS/MS chromatographic protocol to capture prodrug [ELQ-331] as well as [ELQ-300] with early time-points to cover the critical burst phase, a phenomenon known as “dose dumping”. […] In Trial 2, we monitored plasma [ELQ-331] and [ELQ-300] starting 6 hours after im injection. To avoid excessive blood draws, 6 different groups of 4 mice, all treated at the same time, were used in a rotating succession, one group for each time point. FIG. 1 depicts Plasma [ELQ-300], nM, following im injection in mice of 30 mg/kg ELQ-331 (prodrug) in sesame oil. […] At all time-points the [ELQ-300] concentration exceeds the Minimum Fully Effective Concentration (MEC100) of ≈60 nM. All data points are the average values±SEM.
Also shown in FIG. 5 is a composite plot of plasma [ELQ-300] from both trials with remarkable consistency in the results. ELQ-331 outperformed the CALIBR ELQ-300 prodrug (mCAR246) profiled at the 2017 ASTMH meeting by a significant margin, i.e., Day 28 bloodstream [ELQ-300] levels for mCAR246=181±59 (30 mg/kg, unknown formulation) vs. 446±22 nM (avg.±SEM) for prodrug ELQ-331 in (30 mg/kg, sesame oil).

[8] = tested on: P. yoelii luciferase expressing parasites (PyXNL non-lethal strain, luc+); assay: Protection against P. yoelii sporozoite-induced infection in mice (bioluminescence imaging); type: in vivo, Plasmodium yoelii
Procedure: Animals receiving an im injection of 30 mg/kg ELQ-331 in sesame oil were challenged by inoculation with 10,000 P. yoelii luciferase expressing parasites (PyXNL non-lethal strain, luc^+) at two different time points, 48 days and 137 days post im injection (Note that separate groups of mice were used for these two challenges). For details of our experimental methods please refer to the work proposed section as well as published papers by Qigui Li (17) and Kami Kim (18). Sporozoites were obtained by dissection of infected mosquitoes, A. stephensi, and purification over glass wool with assistance from Dr. Brandon Wilder (formerly Sack), who recently joined the OHSU faculty (see letter of collaboration). Non-invasive whole animal
Bioluminescence imaging (BLI) was used to evaluate all study animals for the presence of liver stage infection using an IVIS Spectrum imager. Briefly, on the day of analysis mice received a single ip injection with a luciferin solution roughly 10 minutes before imaging. Each animal was placed on the IVIS platform with gaseous isoflurane serving as anesthetic. […] Of interest, we also challenged animals that had received an im injection (dissolved in sesame oil) of two similar ELQ-300 prodrugs, PSPS-173 and PSP6-16F.
Bioluminescent imaging (FIG. 2) was used to analyze the protective effect of im ELQ-300 prodrugs on Plasmodium yoelii liver stages. Mice were infected by inoculation with 10,000 Plasmodium yoelii GFP/luciferase expressing parasites (PyXNL non-lethal strain, luc*). As described in the narrative infected mice received sporozoite injections 48 days and 137 days following im injection with selected ELQ-300 prodrugs dissolved in sesame oil. After sporozoite challenge, mice underwent imaging for detection of bioluminescent signal after 24 and 48 hours and then again on Day 6 post-inoculation. Control mice show bioluminescent signal in the region above the liver of anesthetized mice after 24 hours which becomes more intense by 48 hours after which parasites emerge into the bloodstream as evidenced by widespread signal intensity across the entire animal by 6-days post inoculation.

[9] = tested on: patent malaria infections in mice; conditions: oral drug delivery, single dose; cited from earlier work
[10] = challenge 137 days (4½ months) after single im injection in sesame oil

Structure (SMILES): COc1cc2[nH]c(C)c(-c3ccc(Oc4ccc(OC(F)(F)F)cc4)cc3)c(=O)c2cc1Cl [ELQ-300, 6-Chloro-7-methoxy-2-methyl-3-[4-[4-(trifluoromethoxy)phenoxy]phenyl]-4(1H)-quinolinone]
- IC50's vs. multidrug resistant P. falciparum strains [1]: low nanomolar
- potency vs. ATV resistant parasites (ATV resistant parasites): equal potency
- ED50 (malaria-infected mice; 4-day Peters Test): 0.02 mg/kg
- curative dose (malaria-infected mice; 4-day Peters Test): 0.3 to 1 mg/kg
- fold more effective than ATV in vivo in treatment of malaria-infected mice (malaria-infected mice; relative to ATV): 30 fold
- metabolic stability [2]: metabolically stable
- metabolic stability [3]: metabolically stable
- metabolic stability [4]: metabolically stable
- selectivity for the parasite over the host cyt bc1 (P. falciparum cyt bc1): 10,000 fold
- minimum effective concentration (plasma ELQ-300) [5]: 83 nM

Structure (SMILES): CCOC(=O)OCOc1c(-c2ccc(Oc3ccc(OC(F)(F)F)cc3)cc2)c(C)nc2cc(OC)c(Cl)cc12 [ELQ-331, ((6-chloro-7-methoxy-2-methyl-3-(4-(4-(trifluoromethoxy)phenoxy)phenyl)quinolin-4-yl)oxy) methyl ethyl carbonate]
- solubility [6]: 125 mg/mL (≈ 216 mM)
- ratio of ELQ-300/ELQ-331 in plasma [7]: very large
- protection against sporozoite challenge ([8]; challenge 48 days after single im injection in sesame oil): fully protected
- protection against sporozoite challenge [8, 10]: complete protection; also recorded: fully protected
- duration of protection in mice with a single im injection ([8]; single im injection): more than 4 months
- bioluminescent signal (liver stage infection) ([8]; sporozoite challenge 48 days after 30 mg/kg im injection (Trial 2)): no detectable bioluminescent signal
- bioluminescent signal (liver stage infection) ([8]; sporozoite challenge 137 days after 30 mg/kg im injection (Trial 1)): no detectable bioluminescent signal
- cure of patent malaria infections in mice [9]: single dose cures

Structure (SMILES): COC(=O)OCOc1c(-c2ccc(Oc3ccc(OC(F)(F)F)cc3)cc2)c(C)nc2cc(OC)c(Cl)cc12 [ELQ-487]
- Sesame Oil Solubility [6]: 91 mg/mL

Structure (SMILES): CCCOC(=O)OCOc1c(-c2ccc(Oc3ccc(OC(F)(F)F)cc3)cc2)c(C)nc2cc(OC)c(Cl)cc12 [ELQ-488]
- Sesame Oil Solubility [6]: 83 mg/mL

Structure (SMILES): CCCCOC(=O)OCOc1c(-c2ccc(Oc3ccc(OC(F)(F)F)cc3)cc2)c(C)nc2cc(OC)c(Cl)cc12 [ELQ-489]
- Sesame Oil Solubility [6]: 71 mg/mL

Structure (SMILES): CCCCCOC(=O)OCOc1c(-c2ccc(Oc3ccc(OC(F)(F)F)cc3)cc2)c(C)nc2cc(OC)c(Cl)cc12 [ELQ-490, ((6-chloro-7-methoxy-2-methyl-3-(4-(4-(trifluoromethoxy)phenoxy)phenyl)quinolin-4-yl)oxy)methyl pentyl carbonate]
- solubility [6]: 83 mg/mL (≈ 134 mM)
- melting point: 109 °C

Structure (SMILES): CCCCCCOC(=O)OCOc1c(-c2ccc(Oc3ccc(OC(F)(F)F)cc3)cc2)c(C)nc2cc(OC)c(Cl)cc12 [ELQ-491, ((6-chloro-7-methoxy-2-methyl-3-(4-(4-(trifluoromethoxy)phenoxy)phenyl)quinolin-4-yl)oxy)methyl hexyl carbonate]
- solubility [6]: 100 mg/mL (≈ 158 mM)
- melting point: 79 °C

Structure (SMILES): CCCCCCCOC(=O)OCOc1c(-c2ccc(Oc3ccc(OC(F)(F)F)cc3)cc2)c(C)nc2cc(OC)c(Cl)cc12 [ELQ-492, ((6-chloro-7-methoxy-2-methyl-3-(4-(4-(trifluoromethoxy)phenoxy)phenyl)quinolin-4-yl)oxy)methyl heptyl carbonate]
- solubility [6]: 71 mg/mL (≈ 110 mM)

Structure (SMILES): CCCCCCCCOC(=O)OCOc1c(-c2ccc(Oc3ccc(OC(F)(F)F)cc3)cc2)c(C)nc2cc(OC)c(Cl)cc12 [ELQ-493, ((6-chloro-7-methoxy-2-methyl-3-(4-(4-(trifluoromethoxy)phenoxy)phenyl)quinolin-4-yl)oxy)methyl octyl carbonate]
- solubility [6]: 100 mg/mL (≈ 151 mM)
- melting point: 54 °C

Structure (SMILES): CCCCCCCCCOC(=O)OCOc1c(-c2ccc(Oc3ccc(OC(F)(F)F)cc3)cc2)c(C)nc2cc(OC)c(Cl)cc12 [ELQ-494]
- Sesame Oil Solubility [6]: 333 mg/mL

Structure (SMILES): CCCCCCCCCCOC(=O)OCOc1c(-c2ccc(Oc3ccc(OC(F)(F)F)cc3)cc2)c(C)nc2cc(OC)c(Cl)cc12 [ELQ-495, ((6-chloro-7-methoxy-2-methyl-3-(4-(4-(trifluoromethoxy)phenoxy)phenyl)quinolin-4-yl)oxy)methyl decyl carbonate]
- solubility [6]: ≥ 500 mg/mL
- melting point: 55 °C

Structure (SMILES): CCCCCCCOC(=O)OCOc1c(-c2ccc(Oc3ccc(OC(F)(F)F)cc3)cc2)c(C)nc2cc(OC)c(Cl)cc12 [PSP5-173]
- protection against sporozoite challenge [8, 10]: partially protected
- mice that developed blood stage infection ([8]; challenge 137 days after im injection): One of three
